Reference: patent publication US8232063B2, “H+-gated ion channel” (University of Utah Research Foundation, priority 2004, dated 2012)
“Also recorded” adds a separate entry of the source. Read-outs that look alike come from different tables or passages of the source. Each block holds one compound with its values, some of them ahead of it.

How the values were obtained:
[1] = tested on: posterior body contraction; assay: Posterior body contraction of the defecation cycle in vivo; design: species or system C. elegans; conditions: 100 mM, pH 7.2, injected into pseudocoelomic space
Description: To determine if H^+ ions are required to initiate a posterior body contraction endogenous acidification of the pseudocoelomic space is blocked. For example, 100 mM Bis-Tris Propane buffered saline (pH 7.2) is injected into the pseudocoelomic space of an animal and defecation cycles postinjection observed. […] The injected animals should phenocopy both pbo-4 and pbo-5 mutants.
Alternatively, a caged buffer is used to assay the requirement for H^+ activation of PBO-5/PBO-8 receptors in vivo. For example, animals are injected with a caged buffer (Molecular Probes) and the buffer uncaged, by flash photolysis, as a posterior body contraction is about to occur. An advantage of the latter scheme is that an animal can be injected first and then observed for a number of cycles to determine if it retains normal defecation cycles, and in particular posterior body contractions. After quantification of a number of defecation cycles, the buffer is uncaged and the animal observed for a specific loss of posterior body contraction. Li addition, the inverse experiment, where caged protons are injected, may be conducted to elicit an out of phase posterior body contraction by uncaging the protons during the intercycle.
The posterior body contraction occurs via a calcium-regulated mechanism. […]

[2] = tested on: PBO-5/PBO-8 receptors; assay: Two-electrode voltage clamp of Xenopus oocytes coinjected with PBO-5 and PBO-8 cRNA; type: cell-based, C. elegans; conditions: for run-down (use-dependent block) of H+-evoked current by the buffer of the extracellular solution: repeated pH 6.8 test pulses
Description: (§1) Capped RNA was prepared using the T7 mMessage mMachine kit (Ambion). Xenopus oocytes were collected and coinjected with 25 ng each of PBO-5 and PBO-8 cRNA and two-electrode voltage clamp recordings were performed 3-5 days post-injection. The standard bath solution for dose-response and control I-V experiments was Ringer's (in mM): 115 NaCl, 1.8 […], 10 Bis-Tris Propane (pH 7.4 Acetic acid). For dose-response experiments, each oocyte was subjected to a 5 second application of test pH (7.0 - 5.0) with 2 minutes of pH 7.4 wash between test applications.
Ion selectivity experiments: All points are responses to test pulse applications of pH 6.8 for 5 seconds. The reversal potential of PBO-5/PBO-8 expressing oocytes were first determined in standard Ringer's (in mM): 115 NaCl, 1.0 CaCl2, 10 Bis-Tris Propane (pH 7.4, acetic acid). For chloride permeability a simplified solution was used, chloride-free (in mM): 115 Na^+ gluconate, 1.0 CaCl2, 10 Bis-Tris Propane (pH 7.4 acetic acid). For Na^+ permeability a simplified solution was used, Na^+ free (in mM): 115 mM N-methyl D-glucamine (NMDG), 1.8 CaCl2, 10 Bis-Tris Propane (pH 7.4 acetic acid)). All solutions were brought to pH by addition of NaOH or acetic acid. To determine K^+ permeability, I-V experiments were performed in K^+ Ringer's (in mM): 115 K^+-gluconate, 1.0 CaCl2, 10 Bis-Tris Propane (pH=7.4 acetic acid). To determine Ca^2+ permeability extracellular Na^+ was lowered to 90 mM and extracellular CaCl2 was increased to 3 mM and 10 mM, compare to 1 mM Ca^2+ control. To better resolve calcium permeability, the Na^+ free solution was used except CaCl2 was increased ten-fold, 18 mM CaCl2 (in mM): 115 NMDG, 18 CaCl2, 10 Bis-Tris Propane, (pH 7.4 acetic acid). Osmolarity was measured for each solution and was maintained at 240 mOsm by the addition of sucrose. All recordings were done at room temperature. We used 3M KCl filled electrodes with a resistance between 1-3 MΩ. We used a 3M KCl agar bridge to minimize liquid junction potentials, and all liquid junctions potentials arising at the tip of the recording electrode were corrected online.
Data analysis. Data acquisition and analysis were performed using Axograph (Axon Instruments) software, and curve fitting and statistical analysis were performed with Prism (Graphpad). Dose-response curves from individual oocytes were normalized to the maximum and minimum values and averaged for at least eleven oocytes. Normalized data were fit to the four-parameter equation derived from the Hill equation: Y=Min+(Max−Min)/(1+10(Log EC50-X)(nH)), where Max is the maximal response, Min is the response at the lowest drug concentration, X is the logarithm of agonist concentration, EC50 is the half-maximal response, and nH is the Hill coefficient. Error bars represent the standard error of the mean.

[3] = tested on: PBO-8 homomers; assay: Two-electrode voltage clamp of Xenopus oocytes injected with PBO-8 cRNA (homomers); type: cell-based, C. elegans
[4] = molecular target: T1, PBO-5 homomers (Caenorhabditis elegans, UniProt G5ECT0); assay: Two-electrode voltage clamp of Xenopus oocytes injected with PBO-5 cRNA (homomers); type: cell-based, C. elegans
T1 construct: cloned into the pCR2.1 TA cloning vector (Invitrogen) and a full length clone pPD68 was generated; expressed in transfected cells; host or cells: Xenopus oocytes injected with PBO-5 cRNA (pSGEM-based plasmid pAB20)
T1 sequence (G5ECT0 22-504 isoform G5ECT0-2 limits assumed): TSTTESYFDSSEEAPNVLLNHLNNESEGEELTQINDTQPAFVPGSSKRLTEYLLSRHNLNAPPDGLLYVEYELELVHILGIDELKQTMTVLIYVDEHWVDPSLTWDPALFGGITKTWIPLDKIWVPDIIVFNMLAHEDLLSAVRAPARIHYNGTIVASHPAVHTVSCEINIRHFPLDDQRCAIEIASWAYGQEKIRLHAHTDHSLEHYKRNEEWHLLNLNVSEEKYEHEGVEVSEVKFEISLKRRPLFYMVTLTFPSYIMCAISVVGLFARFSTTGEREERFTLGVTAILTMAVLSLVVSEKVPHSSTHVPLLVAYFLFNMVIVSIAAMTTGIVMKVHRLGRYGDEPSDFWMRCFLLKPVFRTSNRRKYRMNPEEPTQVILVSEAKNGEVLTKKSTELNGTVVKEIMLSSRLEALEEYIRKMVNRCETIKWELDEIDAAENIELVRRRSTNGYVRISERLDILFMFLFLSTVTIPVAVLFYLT
Description: as §1
To determine if PBO-5 can form a homo-oligomeric receptor, we injected PBO-5 cRNA in Xenopus oocytes. […] Two-electrode voltage clamp recordings were used to assay receptor functionality.
To determine if PBO-5 and PBO-8 can co-assemble to form a functional receptor, we injected PBO-5 and PBO-8 cRNA into Xenopus oocytes. […] To determine the possible signal that mediates posterior body contraction we examined the pbo-4 gene.

[5] = Xenopus oocytes, two-electrode voltage clamp

run-down (use-dependent block) of H+-evoked current by the buffer of the extracellular solution [2]: did not cause current run-down
Compound: OCC(CO)(CO)NCCCNC(CO)(CO)CO [Bis-Tris Propane, 1,3-Bis[tris(hydroxymethyl)methylamino) propane]
posterior body contraction after injection of buffered saline into the pseudocoelomic space [1]: fail to initiate a posterior body contraction

maximal activation of PBO-5/PBO-8 on increasing extracellular Ca2+ ([2]; pH 6.0): no effect on maximal activation | H-evoked responses compared to 1 mM Ca2+ control ([2]; pH 7.0 and 6.8, Ca2+ increased to 3 mM and 10 mM): significantly reduced
Compound: [Ca+2] [Ca^2+]
effect of extracellular Ca2+ on gating of PBO-5/PBO-8 (mode of action) ([2]; pH 6.8, 10.0 mM vs 1.0 mM Ca2+): inhibit gating; also recorded: competitive antagonist

Compound: NCCCC(=O)O [GABA, γ-aminobutyric acid]
activation of PBO-8 homomers [3]: lacked the ability to activate | activation of PBO-5 homomers (functional response) [4]: failed to elicit a functional response; also recorded: lacked the ability to activate | co-activation: pH 6.8 plus ligand compared with pH 6.8 only application ([2]; 1 mM ligand, pH 6.8): not significantly different | activation of PBO-5/PBO-8 heteromers [2, 5]: lacked the ability to activate

Compound: O=S(=O)(O)CCN1CCN(CCO)CC1 [HEPES, N-2-hydroxyethylpiperazine-N′-2-ethanesulfonic acid]
run-down (use-dependent block) of H+-evoked current by the buffer of the extracellular solution [2]: very rapid rundown; also recorded: inhibitory to the receptor

pH50 ([2]; 1 mM Ca2+ control conditions): 6.88 | pH50 ([2]; 10 mM Ca2+ test conditions): 6.59 | activation of PBO-5/PBO-8 heteromers [2, 5]: sufficient to activate | pH of 10% maximal activation ([2]; perfusion buffer pH 7.4): ~7.0 | pH50 (half-maximal activation) ([2]; voltage-clamped at -60 mV, test pH 5 seconds, standard Ringer's, n=18): 6.83±0.01
Compound: [1H+] [H^+]

run-down (use-dependent block) of H+-evoked current by the buffer of the extracellular solution [2]: did not cause current run-down
Compound: O=S(=O)(O)CCN1CCOCC1 [MES, 2-(N-Morpholino)-ethanesulfonic acid]

block of PBO-5/8 gating ([2]; 1 mm amiloride): did not result current block
Compound: N=C(N)NC(=O)c1nc(Cl)c(N)nc1N [amiloride]

Compound: N[C@@H](CCC(=O)O)C(=O)O [glutamate]
activation of PBO-8 homomers [3]: lacked the ability to activate | activation of PBO-5 homomers (functional response) [4]: lacked the ability to activate | activation of PBO-5/PBO-8 heteromers [2, 5]: lacked the ability to activate

Compound: NCC(=O)O [glycine]
activation of PBO-8 homomers [3]: lacked the ability to activate | activation of PBO-5 homomers (functional response) [4]: failed to elicit a functional response; also recorded: lacked the ability to activate | activation of PBO-5/PBO-8 heteromers [2]: lacked the ability to activate

Compound: NCCc1c[nH]c2ccc(O)cc12 [serotonin]
activation of PBO-8 homomers [3]: lacked the ability to activate | activation of PBO-5 homomers (functional response) [4]: failed to elicit a functional response | activation of PBO-5 homomers (functional response) ([4]; listed as 5-HT): lacked the ability to activate | activation of PBO-5/PBO-8 heteromers [2, 5]: lacked the ability to activate

Compound: d-tubocurare
pharmacological block of PBO-5/8 responses ([2]; cholinergic antagonist applied to PBO-5/8 expressing cells): all attempts to pharmacologically block PBO-5/8 responses failed
